Like-named read-outs stand apart in the source and are kept apart here.
Molecular target: T1, full-length SARM1 (FL-SARM1) (Homo sapiens, UniProt Q6SZW1)
T1 sequence (Q6SZW1 28-724): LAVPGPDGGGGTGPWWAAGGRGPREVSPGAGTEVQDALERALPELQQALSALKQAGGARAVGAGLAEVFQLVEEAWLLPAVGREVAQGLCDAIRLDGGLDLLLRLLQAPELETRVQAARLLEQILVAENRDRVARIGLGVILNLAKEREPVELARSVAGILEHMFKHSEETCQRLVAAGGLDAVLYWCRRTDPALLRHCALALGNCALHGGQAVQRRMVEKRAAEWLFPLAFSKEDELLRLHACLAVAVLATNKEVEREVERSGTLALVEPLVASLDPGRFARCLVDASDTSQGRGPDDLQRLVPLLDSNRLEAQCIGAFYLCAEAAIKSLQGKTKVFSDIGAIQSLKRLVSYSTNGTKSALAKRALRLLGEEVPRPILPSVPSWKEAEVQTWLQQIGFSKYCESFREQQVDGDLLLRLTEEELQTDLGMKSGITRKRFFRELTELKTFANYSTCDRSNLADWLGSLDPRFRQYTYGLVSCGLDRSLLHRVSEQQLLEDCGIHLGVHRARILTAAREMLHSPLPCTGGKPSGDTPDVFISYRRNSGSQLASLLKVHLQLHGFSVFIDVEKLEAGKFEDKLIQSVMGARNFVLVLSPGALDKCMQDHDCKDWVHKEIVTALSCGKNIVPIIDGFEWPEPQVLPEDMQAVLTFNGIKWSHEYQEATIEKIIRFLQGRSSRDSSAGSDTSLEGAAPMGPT
Assay: FL-SARM1 cellular lysate assay (NAD/NADH-Glo detection of remaining NAD+, NMN-activated)

[1] = Activity (IC50 class), 11 point curve
[2] = Activity (μM) (IC50), 11 point curve
[3] = read-out: Activity (IC50 class), 11 point curve

## Cc1ccc(NC(=O)N2CCC[C@@H]2c2ccccc2)cc1-c1ccccn1 [Example 95, (2R)-N-(4-methyl-3-pyridin-2-ylphenyl)-2-phenylpyrrolidine-1-carboxamide]
[1]
  IC50: 1 to 10 µM
[2]
  IC50: 1.4 µM

## Cc1ccc(NC(=O)[C@@H]2CC2(F)F)cc1-c1ccc(C(F)(F)F)cn1 [Example 154, (1S)-2,2-difluoro-N-[4-methyl-3-[5-(trifluoromethyl)pyridin-2-yl]phenyl]cyclopropane-1-carboxamide]
[1]
  IC50: 1 to 10 µM
[2]
  IC50: 9.9 µM

## CCN1CC2CC(C1)N2C(=O)Nc1ccc(C)c(-c2ccccn2)c1 [Example 7, 3-Ethyl-N-(4-methyl-3-(pyridin-2-yl)phenyl)-3,6-diazabicyclo[3.1.1]heptane-6-carboxamide]
[1]
  IC50: 1 to 10 µM
[2]
  IC50: 4 µM

## Cc1ccc(NC(=O)[C@H]2C[C@@H]3C[C@@H]3N2c2ncccn2)cc1-c1ncc(F)cn1 [Example 269, (1S,3R,5S)-N-[3-(5-fluoropyrimidin-2-yl)-4-methylphenyl]-2-pyrimidin-2-yl-2-azabicyclo[3.1.0]hexane-3-carboxamide]
[1]
  IC50: > 10 µM
[2]
  IC50: 47 µM

## Cc1ccc(NC(=O)N2C3C[C@H](C)C[C@@H]2C3)cc1-c1cc(F)cnn1 [Example 220, cis-N-[3-(5-fluoropyridazin-3-yl)-4-methylphenyl]-3-methyl-6-azabicyclo[3.1.1]heptane-6-carboxamide]
[2]
  IC50: 0.1 µM
[3]
  IC50: 0.0001 to 1 µM

## Cc1cc(F)c(NC(=O)N2[C@@H]3C[C@@H](C)C[C@H]2C3)cc1-c1nccnn1 [Example 240, cis-N-[2-fluoro-4-methyl-5-(1,2,4-triazin-3-yl)phenyl]-3-methyl-6-azabicyclo[3.1.1]heptane-6-carboxamide]
[2]
  IC50: 0.09 µM
[3]
  IC50: 0.0001 to 1 µM

## Cc1ccc(NC(=O)[C@H]2[C@@H](C)CCN2c2ccccn2)cc1-c1ncc(F)cn1 [Example 277, (2R,3S)-N-[3-(5-fluoropyrimidin-2-yl)-4-methylphenyl]-3-methyl-1-pyridin-2-ylpyrrolidine-2-carboxamide]
[1]
  IC50: 1 to 10 µM
[2]
  IC50: 1.4 µM

## C[C@@H]1C[C@@H]2C[C@H](C1)N2C(=O)Nc1ccc(C#N)c(-c2ccccn2)c1 [Example 42, cis-N-(4-cyano-3-(pyridin-2-yl)phenyl)-3-methyl-6-azabicyclo[3.1.1]heptane-6-carboxamide]
[2]
  IC50: 0.05 µM
[3]
  IC50: 0.0001 to 1 µM

## Cc1ccc(NC(=O)C2[C@@H]3CC[C@@]2(c2ccnn2C)C3)cc1-c1ncc(F)cn1 (single isomer, unassigned) [Example 204, N-[3-(5-fluoropyrimidin-2-yl)-4-methylphenyl]-1-(2-methylpyrazol-3-yl)bicyclo[2.1.1]hexane-5-carboxamide]
[2]
  IC50: 0.5 µM
[3]
  IC50: 0.0001 to 1 µM

## O=C(Nc1ccc(C(F)(F)F)c(-c2ncc(F)cn2)c1)N1C2CC3CC(C2)CC1C3 [Example 310, N-(3-(5-fluoropyrimidin-2-yl)-4-(trifluoromethyl)phenyl)-2-azaadamantane-2-carboxamide]
[2]
  IC50: 0.7 µM
[3]
  IC50: 0.0001 to 1 µM

## O=C(Nc1ccc(C2CC2)c(-c2ccc(F)cn2)c1)[C@@H]1CC1(F)F [Example 155, (1S)-N-[4-cyclopropyl-3-(5-fluoropyridin-2-yl)phenyl]-2,2-difluorocyclopropane-1-carboxamide]
[1]
  IC50: 1 to 10 µM
[2]
  IC50: 3.5 µM

## O=C(Nc1ccc(C(F)(F)F)c(-c2ccc(F)cn2)c1)N1C2CCCC1C2 [Example 56, N-(3-(5-fluoropyridin-2-yl)-4-(trifluoromethyl)phenyl)-6-azabicyclo[3.1.1]heptane-6-carboxamide]
[1]
  IC50: 1 to 10 µM
[2]
  IC50: 2.2 µM

## O=C(Nc1ccc(Cl)c(-c2ccc(F)cn2)c1)N1C2CCCC1C2 [Example 46, N-(4-chloro-3-(5-fluoropyridin-2-yl)phenyl)-6-azabicyclo[3.1.1]heptane-6-carboxamide]
[2]
  IC50: 0.2 µM
[3]
  IC50: 0.0001 to 1 µM

## Cc1ccc(NC(=O)N2[C@@H]3C[C@@H](C)C[C@H]2C3)cc1-c1nccc(C2CC2)n1 [Example 236, cis-N-[3-(4-cyclopropylpyrimidin-2-yl)-4-methylphenyl]-3-methyl-6-azabicyclo[3.1.1]heptane-6-carboxamide]
[2]
  IC50: 0.7 µM
[3]
  IC50: 0.0001 to 1 µM

## C[C@@H]1CC2C[C@H](C1)N2C(=O)Nc1ccc(Br)c(-c2nccnn2)c1 [Example 315]
[2]
  IC50: 0.08 µM
[3]
  IC50: 0.0001 to 1 µM

## Cc1ccc(NC(=O)N2CCOc3ccccc3C2)cc1-c1ccccn1 [Example 102, N-(4-methyl-3-pyridin-2-ylphenyl)-3,5-dihydro-2H-1,4-benzoxazepine-4-carboxamide]
[2]
  IC50: 0.9 µM
[3]
  IC50: 0.0001 to 1 µM

## Cc1ccc(NC(=O)CC2CCC2)cc1-c1cccnn1 [Example 167, 2-cyclobutyl-N-(4-methyl-3-pyridazin-3-ylphenyl)acetamide]
[1]
  IC50: > 10 µM
[2]
  IC50: 11 µM

## Cc1ccc(NC(=O)C2CCC(=O)N2c2ccccn2)cc1-c1ncc(F)cn1 (racemic) [Example 278, N-[3-(5-fluoropyrimidin-2-yl)-4-methylphenyl]-5-oxo-1-pyridin-2-ylpyrrolidine-2-carboxamide]
[1]
  IC50: > 10 µM
[2]
  IC50: 17 µM

## Cc1ccc(NC(=O)N2C3CCCC2C3)cc1-c1cccnn1 [Example 54, N-(4-methyl-3-(pyridazin-3-yl)phenyl)-6-azabicyclo[3.1.1]heptane-6-carboxamide]
[2]
  IC50: 0.5 µM
[3]
  IC50: 0.0001 to 1 µM

## Cc1ccc(NC(=O)[C@@H]2CC2(F)F)cc1-c1cccc(C#N)n1 [Example 159, (1S)-N-[3-(6-cyanopyridin-2-yl)-4-methylphenyl]-2,2-difluorocyclopropane-1-carboxamide]
[1]
  IC50: 1 to 10 µM
[2]
  IC50: 9.8 µM

## Cc1ccc(NC(=O)N2[C@@H]3C[C@@H](C)C[C@H]2C3)cc1-c1cncc(C#N)n1 [Example 238, cis-N-[3-(6-cyanopyrazin-2-yl)-4-methylphenyl]-3-methyl-6-azabicyclo[3.1.1]heptane-6-carboxamide]
[2]
  IC50: 0.04 µM
[3]
  IC50: 0.0001 to 1 µM

## O=C(Nc1ccc(C(F)(F)F)c(-c2ccc(F)cn2)c1)N1C2CCC1c1ccccc12 [Example 57, N-(3-(5-fluoropyridin-2-yl)-4-(trifluoromethyl)phenyl)-1,2,3,4-tetrahydro-1,4-epiminonaphthalene-9-carboxamide]
[1]
  IC50: 1 to 10 µM
[2]
  IC50: 3.7 µM

## Cc1ccc(NC(=O)C2CN(CC(F)(F)F)C2)cc1-c1ccccn1 [Example 132, N-(4-methyl-3-pyridin-2-ylphenyl)-1-(2,2,2-trifluoroethyl)azetidine-3-carboxamide]
[1]
  IC50: > 10 µM
[2]
  IC50: 43 µM

## Cc1cc(F)c(NC(=O)N2C3CCCC2C3)cc1-c1nccnn1 [Example 246, N-[2-fluoro-4-methyl-5-(1,2,4-triazin-3-yl)phenyl]-6-azabicyclo[3.1.1]heptane-6-carboxamide]
[1]
  IC50: 1 to 10 µM
[2]
  IC50: 2 µM

## Cc1ccc(NC(=O)[C@H]2CCCN2c2ccccn2)cc1-c1ncc(F)cn1 [Example 279, (2R)-N-[3-(5-fluoropyrimidin-2-yl)-4-methylphenyl]-1-pyridin-2-ylpyrrolidine-2-carboxamide]
[1]
  IC50: 1 to 10 µM
[2]
  IC50: 4.2 µM

## Cc1ccc(NC(=O)[C@H]2C[C@H]3C[C@H]3N2c2cnccn2)cc1-c1ncc(F)cn1 [Example 264, (1R,3R,5R)-N-[3-(5-fluoropyrimidin-2-yl)-4-methylphenyl]-2-pyrazin-2-yl-2-azabicyclo[3.1.0]hexane-3-carboxamide]
[1]
  IC50: 1 to 10 µM
[2]
  IC50: 1.1 µM

## CNC(=O)CC12CC(C)CC(C1)N2C(=O)Nc1ccc(C)c(-c2ncc(F)cn2)c1 (stereo not shown) [Example 305, N-(3-(5-fluoropyrimidin-2-yl)-4-methylphenyl)-3-methyl-1-(2-(methylamino)-2-oxoethyl)-6-azabicyclo[3.1.1]heptane-6-carboxamide]
[2]
  IC50: 0.01 µM
[3]
  IC50: 0.0001 to 1 µM

## Cc1ccc(NC(=O)N2C3CC2CN(CC(F)F)C3)cc1-c1ccccn1 [Example 5, 3-(2,2-difluoroethyl)-N-(4-methyl-3-(pyridin-2-yl)phenyl)-3,6-diazabicyclo[3.1.1]heptane-6-carboxamide]
[2]
  IC50: 0.8 µM
[3]
  IC50: 0.0001 to 1 µM

## Cc1ccc(NC(=O)[C@H]2C[C@H]3C[C@H]3N2Cc2ncccn2)cc1-c1ncc(F)cn1 [Example 261]
[1]
  IC50: > 10 µM
[2]
  IC50: 34 µM

## O=C(Nc1ccc(C(F)(F)F)c(-c2ncc(F)cn2)c1)N1CCCCCC1 [Example 313, N-(3-(5-fluoropyrimidin-2-yl)-4-(trifluoromethyl)phenyl) azepane-1-carboxamide]
[2]
  IC50: 0.8 µM
[3]
  IC50: 0.0001 to 1 µM

## Cc1ccc(NC(=O)[C@H]2CC[C@@H](C(F)(F)F)N2c2ccccn2)cc1-c1ncc(F)cn1 [Example 276, (2R,5S)-N-[3-(5-fluoropyrimidin-2-yl)-4-methylphenyl]-1-pyridin-2-yl-5-(trifluoromethyl) pyrrolidine-2-carboxamide]
[1]
  IC50: 1 to 10 µM
[2]
  IC50: 6.3 µM

## Cc1ccc(NC(=O)N2C3CCCC2C3)cc1-c1ncc(F)c(C#N)n1 [Example 251, N-[3-(4-cyano-5-fluoropyrimidin-2-yl)-4-methylphenyl]-6-azabicyclo[3.1.1]heptane-6-carboxamide]
[1]
  IC50: 1 to 10 µM
[2]
  IC50: 1 µM
